Here are results for nine compounds from patent publication US5443986A, “Enzymatic analysis using substrates that yield fluorescent precipitates” (Molecular Probes, Inc., priority 1993, dated 1995).

A short description of data set [1]: Critical concentration (Mc) for precipitation of the enzymatic product. The settings on record: product of hydrolysis by excess alkaline phosphatase, 0.1M TRIS pH 10.3. The data set is classed as physicochemical. As to the method:
2D) Critical concentration: Various concentrations of 2-(4'-methoxy-2'-phosphoryloxyphenyl)quinazolinone (3e) were reacted with 50 μL of excess alkaline phosphatase in 200 μL solution of 0.1M TRIS≥pH 10.3 containing 50 mM NaCl, 10 mM MgCl2 and 0.1 mM ZnCl2. The resulting precipitate and fluorescence were measured in a CytoFluor fluorescence plate reader (Millipore) with excitation at 360 nm, emission at 460 nm using sensitivity setting 3.
3). Determination of the critical concentration and pH dependence for the precipitation. The critical concentration (Mc, in units of mmoles) and the pH dependence (pKa) for precipitation are both important parameters for judging the precipitation properties of the enzymatic products obtained from the subject substrates. Below the critical concentration the product will not be detected as a fluorescent precipitate. Obviously these two parameters contribute to the precipitation in a correlated way. As a simple approach, one may define the critical concentration as the concentration necessary for the precipitation at a high pH where all of the phenol group is ionized. Similarly, acidification by lowering the pH results in precipitation at a concentration below the critical concentration that is obtained at high pH to an extent that is related to the pKa of the phenolic group. It is a characteristic of the preferred substrates that only the product precipitate is fluorescent. In this case the precipitate is quantitated by its fluorescence which results in a correlation of the fluorescence with the degree of precipitation.
To obtain the critical concentration for one product the phosphatase substrate (1e) (200 μL) in a 96-well plate is added to 0.1M TRIS, pH 10.3, containing 50 mM NaCl, 10 mM MgCl2 and 0.1 mM ZnCl2 to yield a final concentration of 0.1 to 10 mM. 50 μL of a 1 mg/mL solution of alkaline phosphatase is then added. The fluorescence development is complete after 5 minutes as measured in using a CytoFluor™ 2300 fluorescence plate reader (Millipore, Bedford, Mass.). A concentration showing appreciable fluorescence is determined as the critical concentration.

The target of data set [2] is Alkaline phosphatase conjugated goat anti-rabbit antibodies (Bos taurus, UniProt P19111). Kind of data set: Western blot immunodetection of subunit II of bovine heart cytochrome c oxidase with a phosphatase substrate. The data set is classed as biochemical. As to the method:
1.1. Cytochrome c oxidase from the bovine heart mitochondrial inner membrane is highly purified according to the method of Capaldi and Hayashi, FEBS LETT 26, 4229-4238 (1972).
1.2. 50 μl of pure cytochrome c oxidase (20 mg/ml) is dissolved in a dissociation buffer to a final concentration of 1 mg/ml for electrophoresis.
1.3. An 18% acrylamide gel containing 6M urea, 0.1% SDS is used for gel electrophoresis according to a procedure published by Zhang, Lindorfer and Capaldi, BIOCHEMISTRY, 27, 1389-1394 (1988). 15 μg of protein is loaded onto each lane. The subunits of cytochrome c oxidase are separated during electrophoresis (there are 13 different subunits in bovine cytochrome c oxidase).
2.3. Protein samples in both B and C, resolved in SDS-gel electrophoresis, are semi-dry transferred onto a nitrocellulose membrane following a standard electrophoretic elution procedure published by Harlow and Lane, ANTIBODIES, A LABORATORY MANUAL, Cold Spring Harbor Lab (1988).
3.1. The nitrocellulose membrane is incubated with a polyclonal antibody that is specific for Subunit II of Cytochrome C oxidase (final antibody concentration: 20 μg/ml) at room temperature for 12 hours with agitation.
3.2. The membrane is incubated with the enzyme-labeled secondary antibody at room temperature for 1 hour with agitation. Alkaline phosphatase conjugated goat anti-rabbit antibodies are used with 1:3000 dilution in TTBS buffer containing 1% nonfat milk.
3.4. Membrane B is incubated in the phosphatase substrate BCIP/NBT (BioRad), while C is incubated with the fluorogenic, phosphatase substrate 1e.

For data set [3], the target named is T1, alkaline phosphatase (Bos taurus, UniProt P19111). The data set is classed as biochemical. To be noted: 0.1M TRIS pH 10.3, 50 mM NaCl, 10 mM MgCl2, 0.1 mM ZnCl2; double-reciprocal plot. Set-up: mature GPI-type homodimer. The procedure:
As compared with other synthetic substrates, the fluorogenic precipitating substrates described in this invention normally have high enzymatic turnover rates and moderate affinities for the enzymes. Turnover rates of the substrates can be determined as in Example 10 and expressed as micromoles of product per minute per milligram protein (k2, in units of μmol·min^-1 ·mg^-1). The affinity of the substrate is determined by its dissociation constant, KM, in millimolar units. The enzymes can bind to and catalyze conversion of the soluble substrates into detectable reaction products that are apparently less soluble and will precipitate in aqueous solutions. The preferred detectable reaction products are fluorescent precipitates. The precipitation, however, and thus fluorescence, depends on the reaction product concentration or the initial substrate concentration used, as well as the ionization state of the product's phenol group. There are two parameters determining the precipitation, i.e. critical concentration (Mc) and pH dependence (pKa). A method for determination of these parameters is given in Example 11. Table 10 gives the relevant parameters for the enzymatic reaction and precipitation of quinazolinone-based alkaline phosphatase substrates.
4). Kinetic assay of some of the substrates. The specific activity (k2, in a unit of micromole per minute per milligram protein) and Michaelis constant (KM, in a unit of millimole) for hydrolysis of the substrates by the enzyme are listed in Table 10. All of the specific enzymatic reactions are made in the following buffers:
For alkaline phosphatase: 0.1M TRIS pH 10.3 containing 50 mM NaCl, 10 mM MgCl2 and 0.1 mM ZnCl2.
Because the kinetic assay involves variable amounts of precipitate with variable light scattering, measurement in the fluorometer as described above cannot be used here. Instead, a fluorescence plate reader with front-face measurement geometry such as the CytoFluor™ 2300 (Millipore, Bedford, Mass.) is preferred for quantitating the precipitate. The following protocol illustrates the kinetic assay.
4.1 ). In a 96-well plate, pipette 200 μL of a phosphatase substrate in the alkaline phosphatase reaction buffer with a final concentration of 2 to 6 mM, then add 50 μL 1 mg/mL alkaline phosphatase. […] Fluorescence of the precipitate is measured in the CytoFluor with appropriate sensitivity and excitation and emission settings as have been determined with the fluorometer. The fluorescence signal versus the amount of the precipitate is then established for each substrate.
4.2). […] Read the fluorescence of the resulting precipitate after 10 minutes reaction time and calculate the precipitate formation rate per minute by use of the determined fluorescence signal versus the amount of the precipitate. […]

The target in data set [4] is T1, alkaline phosphatase. Kind of data set: Fluorescence and light scattering on hydrolysis of the substrate (FIG. 2B, 2C). Type of data set: biochemical. Set-up: mature GPI-type homodimer. To be noted: 10 μg/mL alkaline phosphatase, 20 seconds. As to the method:
2B) Coexistence of fluorescence and precipitation: 5 mM 2-(4'-methoxy-2'-phosphoryloxyphenyl)quinazolinone (3e), in 0.1M TRIS pH 10.3 containing 50 mM NaCl, 10 mM MgCl2 and 0.1 mM ZnCl2, yields 210 units of fluorescence by action of 10 μg/mL alkaline phosphatase in 20 seconds. The fluorescence can be eliminated by addition of 0.6% Triton X-100 as a result of precipitate dissolution.
2C) Light-scattering increase as a result of precipitation: 2 mM 2-(4'-methoxy-2'-phosphoryloxyphenyl)quinazolinone (3e) scattering increases from 450 units to beyond the detection limit of 1000 units in 20 seconds by action of 10 μg/mL alkaline phosphatase, showing rapid formation of a precipitate. The enzymatic reaction was in 0.1M TRIS pH 10.3 containing 50 mM NaCl, 10 mM MgCl2 and 0.1 mM ZnCl2. The scattering measurement was made in a Perkin-Elmer LS-50 fluorometer with 5 nm slits and a coincident excitation and emission wavelength of 420 nm.

Data set [5] addresses β-galactosidase from E. coli (Escherichia coli, UniProt P00722). Kind of data set: Detection of enzymatic activity in chromatographic fractions, galactosidase peak. The data set is classed as biochemical. To be noted: 5 μL of 5 mg/mL substrate added to 25 μL fraction, pH 7.0. The procedure:
(§1) β-galactosidase from E. coli (MW 540,000, approximately 1 mg) and β-glucuronidase from E. coli (MW 280,000, approximately 1 mg) are dissolved in 25 μL of 0.1M phosphate, pH 7,0 containing 0.11M 2-mercaptoethanol and 1 mM MgCl2 and chromatographed on a 1×35 cm column of BioGel A 1.5M equilibrated with the same buffer. Detection of the protein absorption at 280 nm is used to detect isolated protein fractions. […] To 25 μL aliquots of each fraction, is separately added 5 μL of a 5 mg/mL aqueous solution of 2-(5'-methoxy-2'-galactopyranosyl)phenyl-4-(3H)-quinazolone (3h) or 2-(2-O-β-D-glucopyranosiduronic acid)-4-(3H)-quinazolone (4h).

The target of data set [6] is β-glucuronidase from E. coli (Escherichia coli, UniProt P05804). Kind of data set: Detection of enzymatic activity in chromatographic fractions, glucuronidase peak. Type of data set: biochemical. The settings on record: 5 μL of 5 mg/mL substrate added to 25 μL fraction, pH 7.0. As to the method:
as §1

T1 sequence (P19111 20-506): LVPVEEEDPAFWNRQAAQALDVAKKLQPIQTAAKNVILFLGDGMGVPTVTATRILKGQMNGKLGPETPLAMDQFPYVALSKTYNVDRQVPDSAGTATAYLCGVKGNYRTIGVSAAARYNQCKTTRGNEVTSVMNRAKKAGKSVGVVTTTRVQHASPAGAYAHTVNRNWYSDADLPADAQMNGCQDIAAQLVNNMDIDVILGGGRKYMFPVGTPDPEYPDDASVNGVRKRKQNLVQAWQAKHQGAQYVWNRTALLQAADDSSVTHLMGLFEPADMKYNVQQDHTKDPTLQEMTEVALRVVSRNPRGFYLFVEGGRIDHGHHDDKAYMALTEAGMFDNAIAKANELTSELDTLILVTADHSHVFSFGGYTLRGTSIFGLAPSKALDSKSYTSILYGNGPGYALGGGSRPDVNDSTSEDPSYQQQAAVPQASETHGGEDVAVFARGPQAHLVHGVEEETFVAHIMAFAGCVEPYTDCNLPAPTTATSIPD
Sequence of Alkaline phosphatase conjugated goat anti-rabbit antibodies (P19111 20-506 limits assumed): as the sequence (P19111 20-506) above
Sequence of β-glucuronidase from E. coli (P05804 whole entry): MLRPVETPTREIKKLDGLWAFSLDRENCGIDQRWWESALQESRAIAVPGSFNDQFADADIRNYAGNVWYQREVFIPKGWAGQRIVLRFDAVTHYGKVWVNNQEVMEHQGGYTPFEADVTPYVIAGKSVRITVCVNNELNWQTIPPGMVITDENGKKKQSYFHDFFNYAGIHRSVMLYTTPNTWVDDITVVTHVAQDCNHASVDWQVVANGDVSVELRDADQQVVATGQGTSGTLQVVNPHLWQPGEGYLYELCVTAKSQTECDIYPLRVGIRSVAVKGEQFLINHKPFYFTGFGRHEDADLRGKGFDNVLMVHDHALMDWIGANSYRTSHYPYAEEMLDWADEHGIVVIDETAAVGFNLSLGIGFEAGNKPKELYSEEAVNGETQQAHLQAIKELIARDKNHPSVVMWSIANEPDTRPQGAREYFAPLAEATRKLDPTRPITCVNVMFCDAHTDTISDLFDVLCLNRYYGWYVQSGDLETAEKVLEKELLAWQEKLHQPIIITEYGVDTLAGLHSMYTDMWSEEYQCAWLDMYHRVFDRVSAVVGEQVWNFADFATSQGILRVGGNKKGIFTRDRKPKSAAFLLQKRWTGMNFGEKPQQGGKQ
Sequence of β-galactosidase from E. coli (P00722 2-1024): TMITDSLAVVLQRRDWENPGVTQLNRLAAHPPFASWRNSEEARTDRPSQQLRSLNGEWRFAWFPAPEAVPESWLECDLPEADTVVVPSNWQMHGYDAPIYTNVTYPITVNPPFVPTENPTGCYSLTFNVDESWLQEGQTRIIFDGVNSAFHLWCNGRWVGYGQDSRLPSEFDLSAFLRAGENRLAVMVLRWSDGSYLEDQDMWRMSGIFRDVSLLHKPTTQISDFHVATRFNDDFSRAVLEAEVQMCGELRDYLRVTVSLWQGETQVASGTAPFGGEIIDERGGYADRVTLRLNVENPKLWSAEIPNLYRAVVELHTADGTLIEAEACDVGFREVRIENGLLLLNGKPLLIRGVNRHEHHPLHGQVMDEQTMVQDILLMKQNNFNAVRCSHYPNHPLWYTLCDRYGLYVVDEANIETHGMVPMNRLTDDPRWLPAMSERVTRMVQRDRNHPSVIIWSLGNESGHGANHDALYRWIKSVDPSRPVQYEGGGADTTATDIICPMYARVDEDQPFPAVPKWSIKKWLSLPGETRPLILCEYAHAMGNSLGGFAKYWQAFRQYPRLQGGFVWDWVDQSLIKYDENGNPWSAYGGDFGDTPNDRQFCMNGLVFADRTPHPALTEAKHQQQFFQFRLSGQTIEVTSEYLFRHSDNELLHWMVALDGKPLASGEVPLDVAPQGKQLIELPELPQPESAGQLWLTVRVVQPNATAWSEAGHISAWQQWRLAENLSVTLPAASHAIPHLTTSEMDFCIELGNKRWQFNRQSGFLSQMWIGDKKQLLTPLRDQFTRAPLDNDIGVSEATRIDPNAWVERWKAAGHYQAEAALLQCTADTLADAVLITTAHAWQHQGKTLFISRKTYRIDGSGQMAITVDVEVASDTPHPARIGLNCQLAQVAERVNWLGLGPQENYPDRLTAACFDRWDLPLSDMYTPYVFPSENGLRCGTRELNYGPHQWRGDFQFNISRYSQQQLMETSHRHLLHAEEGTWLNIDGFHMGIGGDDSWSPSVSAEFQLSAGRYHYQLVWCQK

Turning to `O=c1[nH]c(-c2ccccc2OP(=O)(O)O)nc2ccccc12` [1e, 2-phenyl], in data set [1], the “Mc (critical concentration for precipitation)” value (“Mc” for short) was 1.5 mM. The “persistence of the stain on the membrane” value in data set [2] (membrane kept in a dry Petri dish) was “still fluorescent after 3 days”. In addition, in data set [2] (nitrocellulose membrane), the “incubation time after which the immunoreactive band is visualized” value was found to be 30 min and the “staining of other transferred bands” value is recorded as “No other transferred bands are stained”. Moreover, the “k2 (specific activity, turnover rate)” value in data set [3] is 188.81 µmol/min/mg.

`COc1cc(OC)c(OP(=O)(O)O)c(-c2nc3ccccc3c(=O)[nH]2)c1` [2-(3',5'-dimethoxyphenyl)]: the “Mc” value in data set [1] is recorded as 0.3 mM. In data set [3], the “k2 (specific activity, turnover rate)” value amounted to 215.60 µmol/min/mg.

Regarding `COc1ccc(OP(=O)(O)O)c(-c2nc3ccccc3c(=O)[nH]2)c1` [2e, 2-(5'-methoxyphenyl)], the “Mc” value in data set [1] came to 0.8 mM.

`COc1ccc(-c2nc3ccccc3c(=O)[nH]2)c(OP(=O)(O)O)c1` [3e, 2-(4'-methoxy-2'-phosphoryloxyphenyl)quinazolinone]: in data set [1], the “Mc” value came out at 2.5 mM. Moreover, the “light scattering after action of alkaline phosphatase” value in data set [4] (2 mM substrate, starts at 450 units, detection limit 1000 units, 420 nm) is recorded as more than 1000 units. Further, the “fluorescence yielded by action of alkaline phosphatase” value in data set [4] (5 mM substrate, 0.1M TRIS pH 10.3) was 210 units.

Take `COc1ccc(O[C@@H]2O[C@H](CO)[C@H](O)[C@H](O)[C@H]2O)c(-c2nc3ccccc3c(=O)[nH]2)c1` [3h, 2-(5'-methoxy-2'-galactopyranosyl)phenyl-4-(3H)-quinazolone]: in data set [5], the “fluorescent precipitate formation in fractions of the first peak (β-galactosidase)” value is “Visible yellow fluorescent precipitate formation occurs”. In addition, in data set [6], the “fluorescent precipitate formation in fractions of the second peak (β-glucuronidase)” value was “No cross reactivity is observed”.

On to `O=C(O)[C@H]1O[C@@H](Oc2ccccc2-c2nc3ccccc3c(=O)[nH]2)[C@H](O)[C@@H](O)[C@@H]1O` [4h, 2-(2-O-β-D-glucopyranosiduronic acid)-4-(3H)-quinazolone], for which the “fluorescent precipitate formation in fractions of the first peak (β-galactosidase)” value in data set [5] is “No cross reactivity is observed”. In addition, the “fluorescent precipitate formation in fractions of the second peak (β-glucuronidase)” value in data set [6] is “visible formation of a green fluorescent precipitate occurs”.

`COc1ccc(OP(=O)(O)O)c(-c2nc3ccc(Cl)cc3c(=O)[nH]2)c1` [5e, 2-(5'-methoxyphenyl)-6-chloro]: in data set [1], the “Mc” value was 1.2 mM.

Take `O=c1[nH]c(-c2ccccc2OP(=O)(O)O)nc2ccc([N+](=O)[O-])cc12` [6e, 2-phenyl-6-nitro]: the “Mc” value in data set [1] is given as 1.2 mM. The “k2 (specific activity, turnover rate)” value in data set [3] stood at 150.66 µmol/min/mg.

`O=c1[nH]c(-c2cc(Cl)ccc2OP(=O)(O)O)nc2ccccc12` [9e, 2-(5'-chlorophenyl)]: the “Mc” value in data set [1] is reported as 0.4 mM.
